Experimental data as given in US20220306603A1, “TARGETING DNA REPAIR IN TUMOR CELLS VIA INHIBITION OF ERCC1-XPF” (The Governors of the University of Alberta, priority 2019, published 2022).
Entries after “also recorded” stand apart in the source; their conditions may differ.

How the values were obtained:
CYP3A4-M = CYP3A4-M (Homo sapiens, UniProt P08684); test: CYP450 inhibition, CYP3A4-M
[1] = molecular target: T1, truncated ERCC1 (dERCC1) and XPF (dXPF) dimer (Homo sapiens, UniProt Q92889); test: Micro Scale Thermophoresis of truncated ERCC1-XPF; format: binding; settings: truncated dimer compared to individual peptides
T1 construct: XPF (dXPF, codons 667-916); made in house
T1 sequence (Q92889 667-916): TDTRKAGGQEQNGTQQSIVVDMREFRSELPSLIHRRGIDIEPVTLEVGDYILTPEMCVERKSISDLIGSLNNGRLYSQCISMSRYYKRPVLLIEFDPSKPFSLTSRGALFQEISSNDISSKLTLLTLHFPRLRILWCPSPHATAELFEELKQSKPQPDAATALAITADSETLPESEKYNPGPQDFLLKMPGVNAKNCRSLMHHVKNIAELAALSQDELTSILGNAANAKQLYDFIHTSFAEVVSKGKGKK
Description: MST allows for the detection of interactions and changes in the molecular properties of biomolecules at low nanomolar concentrations. We synthesized two human recombinant truncated forms of ERCC1 (dERCC1, codons 96-297) and XPF (dXPF, codons 667-916) for this study because these peptides contain the subunit interaction domains that the inhibitor was designed to disrupt.

ERCC1-XPF = molecular target: T2, ERCC1-XPF (Homo sapiens, UniProt Q92889); test: Microplate fluorescence incision assay of ERCC1-XPF endonuclease activity; format: biochemical; settings: for inhibition of ERCC1-XPF endonuclease activity (in words): compounds 10 μM each
T2 construct: His6; made in house; host or cells: E. coli BL21 (DE3)
T2 sequence (Q92889 1-916): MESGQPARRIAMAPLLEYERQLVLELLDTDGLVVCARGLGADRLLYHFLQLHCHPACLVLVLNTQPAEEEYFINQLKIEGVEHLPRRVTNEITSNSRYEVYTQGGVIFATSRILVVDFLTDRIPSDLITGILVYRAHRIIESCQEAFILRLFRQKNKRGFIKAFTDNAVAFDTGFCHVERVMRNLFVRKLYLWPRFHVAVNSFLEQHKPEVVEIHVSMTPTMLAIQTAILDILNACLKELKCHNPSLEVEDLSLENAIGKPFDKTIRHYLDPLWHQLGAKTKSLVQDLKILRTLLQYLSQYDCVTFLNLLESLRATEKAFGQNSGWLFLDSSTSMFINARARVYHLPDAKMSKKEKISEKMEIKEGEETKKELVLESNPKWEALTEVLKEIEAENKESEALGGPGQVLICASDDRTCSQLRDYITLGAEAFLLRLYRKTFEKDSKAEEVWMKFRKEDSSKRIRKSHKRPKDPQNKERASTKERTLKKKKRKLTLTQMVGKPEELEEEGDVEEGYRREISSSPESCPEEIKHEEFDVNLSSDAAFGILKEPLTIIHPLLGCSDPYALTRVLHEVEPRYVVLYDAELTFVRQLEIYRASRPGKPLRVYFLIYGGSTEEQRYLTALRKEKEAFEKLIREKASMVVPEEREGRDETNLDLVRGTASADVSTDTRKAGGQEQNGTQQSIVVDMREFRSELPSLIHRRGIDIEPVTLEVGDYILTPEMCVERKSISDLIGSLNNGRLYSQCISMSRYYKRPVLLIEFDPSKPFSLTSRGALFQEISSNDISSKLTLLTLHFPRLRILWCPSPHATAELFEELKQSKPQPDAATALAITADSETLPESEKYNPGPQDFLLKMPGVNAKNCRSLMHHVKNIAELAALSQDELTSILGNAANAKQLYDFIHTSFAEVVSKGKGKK
Description: This assay has been previously described (29), and utilizes a stem-loop substrate (composed of a 10mer-duplex stem and a 20mer-oligodT single-strand loop), labelled on the 5′-terminus with 6-FAM and 3′ with the quencher dabcyl.
Human ERCC1-XPF wild-type protein was obtained as previously described (29). Basically, the recombinant protein was expressed from a bicistronic plasmid (provided by Dr. Richard Wood, University of Texas MD Anderson Cancer Center, Smithville, Tex.) in the E. coli BL21 (DE3) strain. Since both XPF and ERCC1 contained a polyhistidine (His-6) tag, the proteins extracted from E. coli were incubated with a ProBond Nickel-Chelating Resin (Thermo Fisher Scientific). Protein eluted from the Ni affinity column was subsequently loaded into a Hi-trap heparin column (GE Healthcare). Fractions recovered from the heparin column that contained ERCC1-XPF were dialyzed, concentrated and stored at −80° C. in 10 mM HEPES pH 7.4, 2.5 mM p-mercaptoethanol, 0.01% CHAPS, 0.25 mM EDTA, 50% glycerol and 25 mM NaCl.
A previously described protocol (2,29) was followed.

[2] = ADME screening: solubility; format: physicochemical; settings: Table 8
HCT116 cells = test: Clonogenic survival assay, cyclophosphamide treatment; format: cell-based, human; settings: cyclophosphamide 0-300 μM, compound 1-4 μM
Experimental: Plates were incubated for another 8 days at 37° C. in a 5% CO2 atmosphere for colony formation. After this period plates were stained with crystal violet, colonies were counted, and plating efficiency and surviving fraction were calculated.

CYP1A2 = molecular target: T3, CYP1A2 (Homo sapiens, UniProt P05177); test: CYP450 inhibition, CYP1A2
T3 sequence (P05177 1-516): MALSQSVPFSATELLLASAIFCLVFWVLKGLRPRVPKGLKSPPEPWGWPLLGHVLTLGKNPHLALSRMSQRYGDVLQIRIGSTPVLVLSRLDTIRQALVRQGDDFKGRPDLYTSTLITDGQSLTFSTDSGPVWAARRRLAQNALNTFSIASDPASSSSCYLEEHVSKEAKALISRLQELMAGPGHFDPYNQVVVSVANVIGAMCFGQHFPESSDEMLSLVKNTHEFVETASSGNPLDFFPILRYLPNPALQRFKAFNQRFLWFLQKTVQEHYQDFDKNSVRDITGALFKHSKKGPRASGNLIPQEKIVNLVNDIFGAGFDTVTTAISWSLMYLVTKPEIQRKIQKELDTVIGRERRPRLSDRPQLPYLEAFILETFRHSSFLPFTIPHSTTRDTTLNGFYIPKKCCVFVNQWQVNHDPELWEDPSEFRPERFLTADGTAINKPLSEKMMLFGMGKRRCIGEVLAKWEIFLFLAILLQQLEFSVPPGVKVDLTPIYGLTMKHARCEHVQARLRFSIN

CYP2D6 = CYP2D6 (Homo sapiens, UniProt P10635); test: CYP450 inhibition, CYP2D6
Chain of CYP2D6 (P10635 whole entry): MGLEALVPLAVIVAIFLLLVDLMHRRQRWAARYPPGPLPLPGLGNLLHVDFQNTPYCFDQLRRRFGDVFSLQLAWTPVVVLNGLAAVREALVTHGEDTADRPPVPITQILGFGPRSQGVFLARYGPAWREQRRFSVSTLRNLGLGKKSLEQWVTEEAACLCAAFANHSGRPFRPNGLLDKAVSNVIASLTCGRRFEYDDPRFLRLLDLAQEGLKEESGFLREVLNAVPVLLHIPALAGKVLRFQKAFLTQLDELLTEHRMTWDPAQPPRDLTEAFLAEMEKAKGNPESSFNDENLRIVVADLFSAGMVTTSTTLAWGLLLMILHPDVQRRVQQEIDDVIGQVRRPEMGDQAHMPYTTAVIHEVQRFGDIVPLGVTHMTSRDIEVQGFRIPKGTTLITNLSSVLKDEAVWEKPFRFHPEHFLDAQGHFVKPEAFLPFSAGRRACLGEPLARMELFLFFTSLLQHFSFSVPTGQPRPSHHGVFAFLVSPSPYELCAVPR

Chain of CYP3A4-M (P08684 whole entry, the tested form may be a part): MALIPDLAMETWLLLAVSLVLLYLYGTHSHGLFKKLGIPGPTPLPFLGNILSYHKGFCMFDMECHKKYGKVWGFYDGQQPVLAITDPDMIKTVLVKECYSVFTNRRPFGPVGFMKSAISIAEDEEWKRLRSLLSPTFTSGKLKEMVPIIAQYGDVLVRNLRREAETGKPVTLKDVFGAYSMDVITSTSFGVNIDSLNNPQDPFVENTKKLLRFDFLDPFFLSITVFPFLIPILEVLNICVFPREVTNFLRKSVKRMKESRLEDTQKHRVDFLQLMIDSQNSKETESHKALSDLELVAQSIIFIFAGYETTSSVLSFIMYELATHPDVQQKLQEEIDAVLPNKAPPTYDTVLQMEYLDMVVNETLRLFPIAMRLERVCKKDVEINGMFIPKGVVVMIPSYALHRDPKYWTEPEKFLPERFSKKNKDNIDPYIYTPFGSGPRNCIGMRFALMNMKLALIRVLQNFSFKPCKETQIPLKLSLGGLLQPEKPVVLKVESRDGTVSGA

COc1ccc2nc3cc(Cl)ccc3c(Nc3ccc(O)c(CN4CCN(CCN(C)C)CC4)c3)c2c1 [Compound A4, 4-((6-Chloro-2-methoxyacridin-9-yl)amino)-2-((4-(2-(dimethylamino)ethyl)piperazin-1-yl)methyl) phenol]
inhibition of CYP3A4-M (in words) (CYP3A4-M): weak inhibitor | change in thermophoresis properties (in words) [1]: induced a larger change in the thermophoresis properties of the truncated dimer | enzyme activity after pre-incubation of ERCC1-XPF with compound (in words) (ERCC1-XPF; 3 μM compound, 10% or 5% DMSO): time-dependent loss of enzyme activity | inhibition of ERCC1-XPF endonuclease activity (in words) (ERCC1-XPF): marked capacity to inhibit; also recorded: potent inhibitors | inhibition of ERCC1-XPF endonuclease activity (in words) (ERCC1-XPF; listed as Gen A-4): significantly better inhibitory properties | Solubility (in words) [2]: Poor | sensitisation to cyclophosphamide, clonogenic survival (in words) (HCT116 cells): no colonies were observed; also recorded: significantly sensitized the cells to cyclophosphamide; also recorded: no colonies were detected | sensitisation to cyclophosphamide, clonogenic survival (in words) (HCT116 cells; listed as Gen A4): significantly sensitized the cells to cyclophosphamide | IC50 (CYP1A2): 6.4 µM | inhibition of CYP2D6 (in words) (CYP2D6): weak inhibitor
